How the values were obtained:
5'-nucleotidase [1] = target: T1, 5'-nucleotidase (Homo sapiens, UniProt P21589); test: Inhibition of human C-terminal 6His-tagged CD73 (1 to 547 residues) expressed in HEK293F cells using 2 uM AMP as substrate by rapidfire mass spectrometry assay
5'-nucleotidase [2] = target: T1, 5'-nucleotidase; test: Inhibition of human CD73 expressed in CHO cells using AMP as substrate preincubated for 10 mins followed by substrate addition and measured every minute for 10 to 20 mins by PNP coupled enzyme assay; type: cell-based
[3] = Inhibition of rat NTPDase3 expressed in CHO cells using ATP as substrate incubated for 10 mins by UV absorbance method; type: cell-based
[4] = target: T2, Ectonucleoside triphosphate diphosphohydrolase 1 (Rattus norvegicus, UniProt P97687); test: Inhibition of rat CD39 expressed in CHO cells using ATP as substrate incubated for 10 mins by UV absorbance method; type: cell-based
T2 sequence (P97687 whole entry): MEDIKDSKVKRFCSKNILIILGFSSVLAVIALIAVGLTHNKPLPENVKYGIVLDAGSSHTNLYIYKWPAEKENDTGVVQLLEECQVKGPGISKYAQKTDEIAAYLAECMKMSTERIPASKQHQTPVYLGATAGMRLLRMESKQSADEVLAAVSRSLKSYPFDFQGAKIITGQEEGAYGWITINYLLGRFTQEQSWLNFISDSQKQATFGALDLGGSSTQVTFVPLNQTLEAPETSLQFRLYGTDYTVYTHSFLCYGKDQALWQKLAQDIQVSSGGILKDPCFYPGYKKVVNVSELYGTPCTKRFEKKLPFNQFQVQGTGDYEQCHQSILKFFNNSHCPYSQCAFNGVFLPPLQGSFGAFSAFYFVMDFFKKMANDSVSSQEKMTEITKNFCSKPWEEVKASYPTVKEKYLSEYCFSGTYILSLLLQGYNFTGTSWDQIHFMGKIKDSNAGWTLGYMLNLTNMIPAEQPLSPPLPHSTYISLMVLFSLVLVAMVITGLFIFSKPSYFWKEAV

[5] = target: T3, Ectonucleoside triphosphate diphosphohydrolase 2 (Rattus norvegicus, UniProt O35795); test: Inhibition of rat NTPDase2 expressed in CHO cells using ATP as substrate incubated for 10 mins by UV absorbance method; type: cell-based
T3 sequence (O35795 whole entry): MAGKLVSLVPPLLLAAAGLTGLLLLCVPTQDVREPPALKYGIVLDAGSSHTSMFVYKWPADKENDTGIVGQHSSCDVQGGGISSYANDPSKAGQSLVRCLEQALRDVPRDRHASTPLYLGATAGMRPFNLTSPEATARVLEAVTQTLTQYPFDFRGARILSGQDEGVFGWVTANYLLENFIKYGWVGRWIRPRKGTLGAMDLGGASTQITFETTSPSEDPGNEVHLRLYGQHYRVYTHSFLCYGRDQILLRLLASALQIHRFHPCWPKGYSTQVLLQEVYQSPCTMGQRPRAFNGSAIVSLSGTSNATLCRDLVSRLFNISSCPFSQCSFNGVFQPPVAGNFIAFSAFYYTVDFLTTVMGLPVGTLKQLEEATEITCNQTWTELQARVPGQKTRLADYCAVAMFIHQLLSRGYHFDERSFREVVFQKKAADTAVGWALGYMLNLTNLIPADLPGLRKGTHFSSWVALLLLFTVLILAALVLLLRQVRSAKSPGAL

[6] = target: T4, Ectonucleoside triphosphate diphosphohydrolase 1 (Homo sapiens, UniProt P49961); test: Inhibition of human CD39 using ATP as substrate preincubated for 3 mins followed by substrate addition and measured after 10 to 15 mins by Malachite green reagent based assay
T4 sequence (P49961 whole entry): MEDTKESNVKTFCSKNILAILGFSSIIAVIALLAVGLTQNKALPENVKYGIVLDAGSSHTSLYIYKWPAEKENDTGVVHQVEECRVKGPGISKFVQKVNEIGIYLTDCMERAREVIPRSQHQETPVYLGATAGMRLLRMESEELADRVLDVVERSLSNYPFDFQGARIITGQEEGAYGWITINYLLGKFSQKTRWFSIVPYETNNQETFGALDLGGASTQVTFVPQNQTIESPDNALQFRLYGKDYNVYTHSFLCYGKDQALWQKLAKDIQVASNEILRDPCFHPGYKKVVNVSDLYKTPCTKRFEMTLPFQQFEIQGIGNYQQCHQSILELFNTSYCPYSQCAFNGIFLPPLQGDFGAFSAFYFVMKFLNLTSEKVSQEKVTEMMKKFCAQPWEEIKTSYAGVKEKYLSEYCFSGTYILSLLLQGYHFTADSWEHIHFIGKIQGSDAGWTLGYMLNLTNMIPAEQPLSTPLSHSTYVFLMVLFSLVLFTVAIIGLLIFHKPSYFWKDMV

[7] = target: T4, Ectonucleoside triphosphate diphosphohydrolase 1; test: Inhibition of human CD39 using ATP as substrate preincubated for 3 mins followed by substrate addition and measured after 10 to 15 mins by Dixon and Cornish-Bowden plot analysis; conditions: read-out: Ki(app)
5'-nucleotidase [8] = target: T1, 5'-nucleotidase; test: Inhibition of CD73 in human serum using 13C5-15N5-AMP as substrate preincubated for 60 mins followed by substrate addition and measured after 15 mins by LC/MS based assay; type: cell-free
5'-nucleotidase [9] = target: T1, 5'-nucleotidase; test: Inhibition of human C-terminal 6His-tagged CD73 ( Trp27 to Lys547 residues) expressed in CHO cells using CMP as substrate incubated for 20 mins by malachite Green assay
Rattus norvegicus = organism: Rattus norvegicus; test: Inhibition of ecto-ATPase in Wistar rat cardiac synaptosomes assessed as reduction in ATP hydrolysis at 100 uM preincubated for 10 min followed by ATP addition and measured after 6 mins relative to control; type: subcellular; conditions: Heart, time 16.0 min
5'-nucleotidase [10] = target: T1, 5'-nucleotidase; test: Inhibition of recombinant human CD73 using AMP as substrate incubated for 90 mins by malachite green colorimetric assay
5'-nucleotidase [11] = target: T1, 5'-nucleotidase; test: Inhibition of recombinant human CD73 using AMP as substrate incubated for 120 mins by CellTiter-Glo assay
5'-nucleotidase [12] = target: T1, 5'-nucleotidase; test: Inhibition of human C-terminal His6-tagged CD73 expressed in HEK293F cells using [15N]5-AMP as substrate preincubated for 1 hr followed by substrate addition and measured after 8 mins by MS/MS assay
5'-nucleotidase [13] = target: T1, 5'-nucleotidase; test: Inhibition of CD73 in human melanoma 1539 cells using AMP substrate by capillary electrophoresis assay; type: cell-based, NW1539
5'-nucleotidase [14] = target: T5, 5'-nucleotidase (Rattus norvegicus, UniProt P21588); test: Inhibition of rat CD73 expressed in baculovirus infected insect cells using AMP substrate by capillary electrophoresis assay
T5 sequence (P21588 whole entry): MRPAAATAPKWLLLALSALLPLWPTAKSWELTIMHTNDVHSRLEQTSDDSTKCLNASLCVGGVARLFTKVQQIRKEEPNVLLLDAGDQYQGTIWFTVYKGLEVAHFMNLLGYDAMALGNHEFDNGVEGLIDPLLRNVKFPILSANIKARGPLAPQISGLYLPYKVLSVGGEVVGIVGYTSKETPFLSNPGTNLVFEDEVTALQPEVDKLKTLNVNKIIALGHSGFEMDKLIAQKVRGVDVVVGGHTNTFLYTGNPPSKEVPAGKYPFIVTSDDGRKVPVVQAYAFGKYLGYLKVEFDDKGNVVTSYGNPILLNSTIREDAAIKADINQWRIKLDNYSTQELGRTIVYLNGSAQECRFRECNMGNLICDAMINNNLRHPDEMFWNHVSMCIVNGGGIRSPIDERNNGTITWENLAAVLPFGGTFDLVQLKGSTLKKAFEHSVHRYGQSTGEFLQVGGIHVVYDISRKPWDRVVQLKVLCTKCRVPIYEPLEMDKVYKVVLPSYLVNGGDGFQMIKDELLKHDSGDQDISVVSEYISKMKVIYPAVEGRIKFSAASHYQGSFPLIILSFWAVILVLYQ

[15] = Inhibition of human FLAG-tagged CD73 Thr376Ala mutant (1 to 552 residues) assessed as reduction in adenosine formation using AMP as substrate preincubated for 10 mins followed by substrate addition and measured after 30 mins by rapidfire mass spectrometry assay
[16] = target: T4, Ectonucleoside triphosphate diphosphohydrolase 1; test: Inhibition of human CD39 using ATP as substrate preincubated for 3 mins followed by substrate addition and measured after 10 to 15 mins by Cheng-Prusoff analysis; conditions: read-out: Ki(app)
[17] = Half-life in human at 25 mg, iv infusion dosed once every 2 weeks; type: ADME, organism-based; conditions: in vivo

T1 sequence (P21589 whole entry, the tested form may be a part): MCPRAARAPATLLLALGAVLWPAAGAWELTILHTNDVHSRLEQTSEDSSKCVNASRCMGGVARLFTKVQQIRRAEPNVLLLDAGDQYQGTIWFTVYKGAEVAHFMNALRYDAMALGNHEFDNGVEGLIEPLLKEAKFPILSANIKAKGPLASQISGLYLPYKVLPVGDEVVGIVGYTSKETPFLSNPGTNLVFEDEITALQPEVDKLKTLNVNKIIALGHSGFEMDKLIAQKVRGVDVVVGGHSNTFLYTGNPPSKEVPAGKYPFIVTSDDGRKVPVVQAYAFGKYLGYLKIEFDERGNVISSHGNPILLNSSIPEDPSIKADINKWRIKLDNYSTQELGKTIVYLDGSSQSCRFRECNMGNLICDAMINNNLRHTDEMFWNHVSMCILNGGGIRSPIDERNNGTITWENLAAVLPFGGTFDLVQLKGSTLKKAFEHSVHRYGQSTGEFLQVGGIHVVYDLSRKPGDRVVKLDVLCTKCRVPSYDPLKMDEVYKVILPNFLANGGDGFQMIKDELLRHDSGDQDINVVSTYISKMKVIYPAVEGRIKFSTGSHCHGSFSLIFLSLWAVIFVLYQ

SMILES | IC50 (5'-nucleotidase [1]) [nM] | further results
O=c1[nH]cc(-c2cc(C3CCC3)c(Cl)nn2)c(=O)[nH]1 | < 62 | –
O=c1[nH]cc(-c2cc(C3CC3)c(Cl)nn2)c(=O)[nH]1 | < 62 | –
C[C@@H](Nc1nc(Cl)nc2c1ncn2[C@@H]1O[C@H](CS(=O)(=O)CP(=O)(O)O)[C@@H](O)[C@H]1O)c1ccccc1 | – | IC50 (5'-nucleotidase [2]): < 10 nM
CC[C@H]1C[C@@H]1c1cc(-c2c[nH]c(=O)[nH]c2=O)nnc1C | < 62 | –
COc1nnc(-c2c[nH]c(=O)[nH]c2=O)cc1C1CC(F)(F)C1 | < 62 | –
COc1nnc(-c2c[nH]c(=O)[nH]c2=O)cc1C1CCC(F)(F)C1 (stereo not drawn) | < 62 | IC50 (5'-nucleotidase [1]; hek293f): < 62 nM
Nc1c(S(=O)(=O)O)cc(Nc2ccc(Cl)cc2)c2c1C(=O)c1ccccc1C2=O | – | Ki [3]: 16400 nM; Ki ([4]; cho): 15700 nM; Ki ([5]; cho): 18000 nM
CCCCSc1nc2c(N)ncnc2n1[C@@H]1O[C@H](COP(=O)(O)OP(=O)(O)O)[C@@H](O)[C@H]1O | – | IC50 [6]: 28000 nM; Ki [7]: 900 nM
COc1nnc(-c2c[nH]c(=O)[nH]c2=O)cc1C1CC1 | < 62 | –
Cc1nnc(-c2c[nH]c(=O)[nH]c2=O)cc1[C@H]1C[C@@H]1C(F)F | < 62 | EC50 (5'-nucleotidase [8]): 51 nM
COc1nnc(-c2c[nH]c(=O)[nH]c2=O)cc1C1CC(C)(C)C1 | < 62 | –
CC[C@H]1C[C@@H]1c1cc(-c2c[nH]c(=O)[nH]c2=O)nnc1C#N | < 62 | –
Cc1nnc(-c2c[nH]c(=O)[nH]c2=O)cc1[C@H]1C[C@@H]1CC(C)C | < 62 | –
N#Cc1nnc(-c2c[nH]c(=O)[nH]c2=O)cc1C1CCCC1 | < 62 | –
CCOC(=O)C(OC[C@H]1C[C@@H](n2nnc3c(NC[C@@H]4CCOC4)nc(Cl)nc32)[C@H](O)[C@@H]1O)P(=O)(O)O (stereo partly drawn) | – | IC50 (5'-nucleotidase [9]): < 100 nM
O=c1[nH]cc(-c2cc(C3CCCC3)c(Cl)nn2)c(=O)[nH]1 | < 62 | –
CC1(C)CC(c2cc(-c3c[nH]c(=O)[nH]c3=O)nnc2Cl)C1 | < 62 | –
O=c1[nH]cc(-c2cc(C3CC(F)(F)C3)c(Cl)nn2)c(=O)[nH]1 | < 62 | –
CCCCSc1nc2c(N)ncnc2n1[C@@H]1O[C@H](COP(=O)(O)O)[C@@H](O)[C@H]1O | – | IC50 [6]: 35000 nM
Cc1cc(-c2ccc(/N=N/c3ccc4c(S(=O)(=O)O)cc(S(=O)(=O)O)c(N)c4c3O)c(C)c2)ccc1/N=N/c1ccc2c(S(=O)(=O)O)cc(S(=O)(=O)O)c(N)c2c1O | – | inhibition (Rattus norvegicus): 97.2%

SMILES | IC50 (5'-nucleotidase [1]) [nM] | further results
CC(C)[C@H]1C[C@@H]1c1cc(-c2c[nH]c(=O)[nH]c2=O)nnc1C#N | < 62 | –
Nc1ncnc2c1ncn2[C@@H]1O[C@H](COP(=O)(O)CP(=O)(O)O)[C@@H](O)[C@H]1O [PHOSPHOMETHYLPHOSPHONIC ACID ADENOSYL ESTER] | – | IC50 (5'-nucleotidase [10]): 1100 nM; IC50 (5'-nucleotidase [2]): 50 nM; IC50 (5'-nucleotidase [11]): 2500 nM; IC50 (5'-nucleotidase [12]): 60 nM; Ki (5'-nucleotidase [13]): 510 nM; Ki (5'-nucleotidase [14]): 870 nM
O=S1(=O)NC(Nc2cccc3[nH]ncc23)=Nc2c1cc(Cl)c(F)c2O | – | IC50 [15]: 15 nM
Nc1c(S(=O)(=O)O)cc(Nc2ccc(Nc3nc(Cl)nc(Nc4ccc(S(=O)(=O)O)c(S(=O)(=O)O)c4)n3)c(S(=O)(=O)O)c2)c2c1C(=O)c1ccccc1C2=O | – | Ki [3]: 1100 nM; Ki [4]: 20000 nM; Ki [5]: 24200 nM
CCCCSc1nc2c(N)ncnc2n1[C@@H]1O[C@H](COP(=O)(O)OP(=O)(O)OP(=O)(O)O)[C@@H](O)[C@H]1O | – | Ki [16]: 800 nM; IC50 [6]: 5600 nM
C[C@H](Nc1cc(Cl)nc2c1cnn2[C@@H]1O[C@H](COP(=O)(O)CP(=O)(O)O)[C@@H](O)[C@H]1O)c1ccccc1F | – | half-life [17]: 74 h
COc1nnc(-c2c[nH]c(=O)[nH]c2=O)cc1C1CCC1 | < 62 | –
COc1nnc(-c2c[nH]c(=O)[nH]c2=O)cc1C1CCCCC1 | < 62 | –
Cc1nnc(-c2c[nH]c(=O)[nH]c2=O)cc1[C@H]1C[C@@H]1CCF | < 62 | –
N#Cc1nnc(-c2c[nH]c(=O)[nH]c2=O)cc1[C@@H]1CC1(F)F | < 62 | –
Cc1nnc(-c2c[nH]c(=O)[nH]c2=O)cc1[C@H]1C[C@@H]1C(C)(F)F | < 62 | –
N#Cc1nnc(-c2c[nH]c(=O)[nH]c2=O)cc1C1CC1 | < 62 | –
CC(C)[C@H]1C[C@@H]1c1cc(-c2c[nH]c(=O)[nH]c2=O)nnc1Cl | < 62 | –
O=c1[nH]cc(-c2cc([C@H]3CC3(F)F)c(Cl)nn2)c(=O)[nH]1 | < 62 | –
O=c1[nH]cc(-c2cc([C@H]3C[C@@H]3C(F)F)cnn2)c(=O)[nH]1 | < 62 | –
N#Cc1nnc(-c2c[nH]c(=O)[nH]c2=O)cc1C1CCC1 | < 62 | –
O=c1[nH]cc(-c2cc([C@H]3C[C@@H]3C(F)F)c(Cl)nn2)c(=O)[nH]1 | < 62 | –
NC(=O)c1cc2c(c(Cl)c1O)NCCOCCCCCc1cc(cc3[nH]ccc13)NS2(=O)=O | – | IC50 [15]: 4 nM
N#Cc1nnc(-c2c[nH]c(=O)[nH]c2=O)cc1[C@H]1C[C@@H]1C(F)F | < 62 | –
CC(F)(F)[C@H]1C[C@@H]1c1cc(-c2c[nH]c(=O)[nH]c2=O)nnc1Cl | < 62 | –

Source: ChEMBL document CHEMBL4680277, “Targeting Metabolism of Extracellular Nucleotides via Inhibition of Ectonucleotidases CD73 and CD39” (J Med Chem, 2020)
